Results reported in ChEMBL document CHEMBL1201862, “PubChem BioAssay data set” (2004).
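Interpolation was linear, between the two tested concentrations surrounding the appropriate level; five concentrations were tested over 48 hours in 96-well plates. GI50 is the concentration that inhibits growth by half.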 Calls of active or inactive are those of the source. No stated cut-off is given here; in the data, active = GI50 up to about 1.1 µM and inactive = higher.

Key:
Experiment in all cases: DTP human tumour cell line panel, 48 h
[1] = system: DLD-1
[2] = system: DMS-114
[3] = system: HOP-18
[4] = system: KM-20L2
[5] = system: LXFL 529
[6] = system: M19-MEL
[7] = system: RXF 631
[8] = system: SNB-78
[9] = system: XF498

Measured: GI50

O=C(CCc1nnc2s/c(=C\c3ccc(Cl)cc3Cl)c(=O)n12)Nc1cc(Cl)c(Cl)cc1Cl
inactive: [1] > 10 µM | [2] > 10 µM | [3] > 10 µM | [4] > 10 µM | [5] > 10 µM | [6] > 10 µM | [7] 71.4 µM | [8] 84.1 µM | [9] > 10 µM

COc1cc(/C=C2\CCc3ccccc3C2=O)cc(OC)c1OC
inactive: [1] 13.8 µM | [2] 12.5 µM | [3] 13.6 µM | [4] 17.2 µM | [5] 15.2 µM | [6] 15.9 µM | [7] 22.4 µM | [8] 24 µM | [9] 17.9 µM
